Measured values reported in patent publication US20180320186A1, “METHOD FOR SITE-SPECIFIC INSERTION OF FOREIGN DNA INTO A GENOME IN AN ANIMAL CELL AND A CELL OBTAINED USING SAME” (INTER-UNIVERSITY RESEARCH INSTITUTE CORPORATION RESEARCH …, priority 2015, published 2018).

Key:
Assay type in all cases: cell-based, human
[1] = test system: RAD21-mAID-Clover fusion protein; test: Deconvolution fluorescence microscopy of living cells expressing RAD21-mAID-Clover after auxin treatment; conditions: 500 μM auxin, observed after 90 minutes, HCT116 with or without OsTIR1
Protocol: (§1) In this experiment, wild-type HCT116 cells and HCT 116 cells modified to constitutively express OsTIR1 necessary for an auxin-inducible degron (AID) method were used as materials. Proliferating cells were prepared in a 6-well plate. 0.8 μg of pX330 for cleaving the target portion of RAD21 gene and 0.6 μg of each of the constructed donor vectors having neomycin and hygromycin resistance markers were mixed and transfected into the cells using Fugene HD (available from Promega Corporation). For transfection, DNA and Fugene HD were mixed according to the instruction manual, allowed to stand for 15 minutes and then added dropwise to the medium.
In the cells before treatment with auxin (3-indole acetic acid), it was observed that RAD21-mAID-Clover was localized in the cell nucleus, regardless of expression of OsTIR1.

[2] = test system: RAD21-mAID-Clover fusion protein; test: Western blotting of RAD21-mAID-Clover after auxin treatment (AID method); conditions: 500 μM auxin for 20 hours, HCT116 with or without OsTIR1
Protocol: as §1
A protein was extracted from clones in which insertions into both alleles were confirmed by genomic PCR, and subjected to Western blotting using a RAD21 antibody and a mAID antibody (right in FIG. 6). […] The RAD21 to which mAID-Clover was not added was detected at 105 kDa. On the other hand, the RAD21-mAID-Clover fusion protein was detected at 145 kDa. As shown in the right side of FIG. 6, in the case where a RAD21 antibody was used, a 105 kDa band was detected in the original HCT116 cells (WT), whereas in the case where mAID-Clover was added to both alleles, a 145 kDa band was detected. In addition, in the case where a mAID antibody was used, only the RAD21 protein having mAID-Clover added thereto was detected.

[3] = test system: DHC1 protein having mAID-Clover added; test: Western blotting with DHC1 antibody after doxycycline and auxin treatment; conditions: 500 μM auxin with 2 μg/mL doxycycline for 2, 4, 6, 8, 10 and 24 hours
Protocol: as §1, with “DHC1” for “RAD21”
A protein was extracted from clones in which insertions into both alleles were confirmed by genomic PCR, and subjected to Western blotting using a DHC1 antibody and an OsTIR antibody (right in FIG. 10). In addition, a protein was similarly extracted from the cells treated with 2 μg/mL of doxycycline and 500 μM of auxin (3-indole acetic acid) for 2, 4, 6, 8, 10, and 24 hours, and used for Western blotting.

[4] = test system: living cells in which a DHC1-mAID-Clover fusion protein is expressed; test: Relative number of cells after treatment of cells expressing DHC1-mAID-Clover; conditions: 500 μM auxin with 2 μg/mL doxycycline; 24, 48 and 72 hours relative to zero hours
Protocol: FIG. 11 is a graph showing the relative number of cells at 24, 48, and 72 hours after treatment with respect to the number of cells at zero hours after treatment, using living cells in which a DHC1-mAID-Clover fusion protein is expressed, untreated and treated with 2 μg/mL of doxycycline alone, or 2 μg/mL of doxycycline and 500 μM of auxin.
The relative number of cells at 24, 48, and 72 hours after treatment was calculated with respect to the number of cells at zero hours after treatment, using living cells in which a DHC1-mAID-Clover fusion protein is expressed, untreated and treated with 2 μg/mL of doxycycline alone, or 2 μg/mL of doxycycline and 500 μM of auxin (FIG. 11).

[5] = test system: living cells in which a DHC1-mAID-Clover fusion protein is expressed; test: Percentage of mitotic cells and fluorescence microscopy (tubulin antibody, SiR-Hoechst) of cells expressing DHC1-mAID-Clover; conditions: 500 μM auxin with 1 μg/mL tetracycline
Protocol: FIG. 12 is a graph showing the percentage of mitotic cells at 18 and 42 hours after treatment, using living cells in which a DHC1-mAID-Clover fusion protein is expressed, untreated and treated with 1 μg/mL of tetracycline alone, or 1 μg/mL of tetracycline and 500 μM of auxin.
The percentage of mitotic cells at 18 and 42 hours after treatment was calculated, using living cells in which a DHC1-mAID-Clover fusion protein is expressed, untreated and treated with 1 μg/mL of tetracycline alone, or 1 μg/mL of tetracycline and 500 μM of auxin (FIG. 12).
In addition, fluorescence microscope observation was carried out after immunostaining with a tubulin antibody and nuclear staining with SiR-Hoechst at 18 hours after treatment for living cells in which a DHC1-mAID-Clover fusion protein is expressed, untreated and treated with 1 μg/mL of tetracycline and 500 μM of auxin (FIG. 13).

SMILES: O=C(O)Cc1c[nH]c2ccccc12 [auxin, 3-indole acetic acid]
- Disappearance of RAD21-mAID-Clover from the nucleus (fluorescence microscope) [1]: RAD21-mAID-Clover disappeared only in cells expressing OsTIR1
- Degradation of RAD21-mAID-Clover (Western blotting) [2]: disappearance of RAD21-mAID-Clover occurred in OsTIR1-expressing cells
- DHC1-mAID-Clover protein level (DHC1 antibody) [3]: disappeared with time
- Relative number of cells (cell proliferation) [4]: cell proliferation was suppressed after 48 hours from the treatment
- Percentage of mitotic cells ([5]; 18 and 42 hours after treatment): accumulation of mitotic cells
- Chromosomal structure (fluorescence microscopy) ([5]; 18 hours after treatment): a chromosomal structural abnormality occurred
